# Results reported in ChEMBL document CHEMBL1130633, “Beta-analogs of PLG (L-prolyl-L-leucyl-glycinamide): ex-chiral pool syntheses and dopamine D2 receptor modulating effects” (Bioorg Med Chem Lett, 1998).
# Where a SMILES comes first, the peptide text is derived from it.
# Target: D(2) dopamine receptor (Bos taurus) (UniProt P20288)
# Assay: Compound was evaluated for its ability to enhance the binding of the dopamine receptor agonist [3H]pramipexole to Dopamine receptor D2 at a concentration of 10E-9 M
# Chain of D(2) dopamine receptor (Bos taurus) (P20288 whole entry): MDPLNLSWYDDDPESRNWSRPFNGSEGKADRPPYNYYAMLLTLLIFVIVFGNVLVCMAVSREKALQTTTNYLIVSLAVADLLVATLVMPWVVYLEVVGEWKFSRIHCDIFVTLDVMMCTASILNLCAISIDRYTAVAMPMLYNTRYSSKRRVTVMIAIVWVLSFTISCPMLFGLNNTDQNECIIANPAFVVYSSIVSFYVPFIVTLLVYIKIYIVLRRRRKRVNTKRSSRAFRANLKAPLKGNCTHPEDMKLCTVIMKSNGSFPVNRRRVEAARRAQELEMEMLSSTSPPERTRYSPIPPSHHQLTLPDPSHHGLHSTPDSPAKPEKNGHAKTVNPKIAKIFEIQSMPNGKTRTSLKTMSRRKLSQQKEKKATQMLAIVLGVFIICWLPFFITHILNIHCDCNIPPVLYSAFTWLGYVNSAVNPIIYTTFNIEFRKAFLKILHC
row,Structure (SMILES),Binding
1,CC(C)C[C@H](NC(=O)[C@H]1CCNC1)C(=O)NCC(N)=O,107%
2,CC(C)C[C@H](NC(=O)[C@@H]1CCCN1)C(=O)NCC(N)=O (H-Pro-Leu-Gly-NH2),109%
3,CC(C)C[C@H](NC(=O)[C@@H]1CNC[C@@H]1Cc1ccccc1)C(=O)NCC(N)=O,104%
4,CC(C)C[C@H](NC(=O)[C@@H]1CNC[C@H]1Cc1ccccc1)C(=O)NCC(N)=O,108%
5,CC(C)C[C@H](NC(=O)[C@H]1CNC[C@@H]1Cc1ccccc1)C(=O)NCC(N)=O,109%
6,CC(C)C[C@H](NC(=O)[C@H]1CNC[C@H]1Cc1ccccc1)C(=O)NCC(N)=O,99.6%
7,CC(C)C[C@H](NC(=O)[C@@H]1CCNC1)C(=O)NCC(N)=O,104%
